Reference: US20050113450A1, “Antibacterial agents” (priority 2002, published 2005)
Values after ≈ are worked out from the molar mass of the structure shown.

Test system: SA 9218
Assay: MIC by standard agar dilution method
Assay type: cell-based
Settings: Mueller Hinton agar, 10^4 to 10^5 cells per spot, incubated overnight at 35° C., lowest concentration that inhibits visible growth
In short: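 Agar dilution: two-fold compound dilutions mixed into molten Mueller Hinton agar, spots of ~10^4–10^5 cells from 0.5 McFarland suspension diluted 1:20 in TSB. Incubated overnight at 35 °C; MIC is lowest concentration inhibiting visible growth.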

Structure (SMILES) | MIC
O=Cc1ccc(NC(=O)c2cc(Br)cc(S(=O)(=O)N3CCc4cc(Cl)ccc43)c2)c(C(=O)O)c1 [PHA-681768] | 1 µg/mL (≈ 1.77 µM)
CO/N=C/c1ccc(NC(=O)c2cccc(S(=O)(=O)N3CCc4cc(Cl)ccc43)c2)c(C(=O)O)c1 [PHA-682996] | 64 µg/mL (≈ 125 µM)
O=C(Nc1ccc(/C=N/O)cc1C(=O)O)c1cccc(S(=O)(=O)N2CCc3cc(Cl)ccc32)c1 [PHA-686834] | 4 µg/mL (≈ 8 µM)
N#Cc1ccc(C2CC2c2cccc(S(=O)(=O)N3CCc4cc(Cl)ccc43)c2)c(C(=O)O)c1 (centres unmarked) [PHA-687511] | 4 µg/mL (≈ 8.35 µM)
O=C(Nc1ccc(C#CCO)cc1C(=O)O)c1cccc(S(=O)(=O)N2CCc3ccccc32)c1 [PHA-687570] | 128 µg/mL (≈ 269 µM)
O=C(O)c1cc(Cl)ccc1/C=C/c1cccc(S(=O)(=O)N2CCc3cc(Cl)ccc32)c1 [PHA-707801] | 4 µg/mL (≈ 8.43 µM)
CC(=O)c1ccc(CC(=O)c2ccc(S(=O)(=O)N3CCc4cc(Cl)ccc43)cc2)c(C(=O)O)c1 [PHA-708922] | > 128 µg/mL
CC(=O)c1ccc(NC(=O)c2cccc(S(=O)(=O)N3CCOCC3)c2)c(C(=O)O)c1 [PHA-708923] | 32 µg/mL (≈ 74 µM)
O=C(Nc1cccc(C(=O)Nc2ccc(Br)cc2C(=O)O)c1)c1ccccc1 [PHA-708976] | 32 µg/mL (≈ 72.8 µM)
O=C(Nc1ccc(C(=O)Nc2ccc(Br)cc2C(=O)O)cc1)c1ccccc1 [PHA-708977] | > 128 µg/mL
O=C(Nc1ccc(Br)cc1C(=O)O)c1cccc(NC(=O)c2ccco2)c1 [PHA-708978] | 32 µg/mL (≈ 74.6 µM)
O=C(Nc1ccc(Br)cc1C(=O)O)c1ccc(NC(=O)c2ccco2)cc1 [PHA-708979] | > 128 µg/mL
O=C(Cc1cccs1)Nc1cccc(C(=O)Nc2ccc(Br)cc2C(=O)O)c1 [PHA-708980] | 16 µg/mL (≈ 34.8 µM)
Cc1cc(C)c(C(=O)Nc2cccc(C(=O)Nc3ccc(Br)cc3C(=O)O)c2)c(C)c1 [PHA-708981] | 16 µg/mL (≈ 33.2 µM)
Cc1cc(C)c(C(=O)Nc2ccc(C(=O)Nc3ccc(Br)cc3C(=O)O)cc2)c(C)c1 [PHA-708982] | 128 µg/mL (≈ 266 µM)
O=C(Nc1cccc(C(=O)Nc2ccc(Br)cc2C(=O)O)c1)c1ccc2c(c1)OCO2 [PHA-708983] | 32 µg/mL (≈ 66.2 µM)
COc1ccc(C(=O)Nc2cccc(C(=O)Nc3ccc(Br)cc3C(=O)O)c2)c(OC)c1 [PHA-708984] | 32 µg/mL (≈ 64.1 µM)
O=C(CSc1ccccc1)Nc1cccc(C(=O)Nc2ccc(Br)cc2C(=O)O)c1 [PHA-708985] | 8 µg/mL (≈ 16.5 µM)
COCC(=O)Nc1cccc(C(=O)Nc2ccc(Br)cc2C(=O)O)c1 [PHA-708986] | 64 µg/mL (≈ 157 µM)
COCC(=O)Nc1ccc(C(=O)Nc2ccc(Br)cc2C(=O)O)cc1 [PHA-708987] | > 128 µg/mL
O=C(Nc1ccccc1)Nc1cccc(C(=O)Nc2ccc(Br)cc2C(=O)O)c1 [PHA-708988] | 32 µg/mL (≈ 70.4 µM)
O=C(Nc1cccc(C(=O)Nc2ccc(Br)cc2C(=O)O)c1)Nc1ccc(F)cc1F [PHA-708989] | 8 µg/mL (≈ 16.3 µM)
N#Cc1cccc(NC(=O)Nc2cccc(C(=O)Nc3ccc(Br)cc3C(=O)O)c2)c1 [PHA-708990] | 8 µg/mL (≈ 16.7 µM)
O=C(Nc1cccc(Cl)c1)Nc1cccc(C(=O)Nc2ccc(Br)cc2C(=O)O)c1 [PHA-708991] | 4 µg/mL (≈ 8.18 µM)

Structure (SMILES) | MIC
CSc1cccc(NC(=O)Nc2cccc(C(=O)Nc3ccc(Br)cc3C(=O)O)c2)c1 [PHA-708992] | 4 µg/mL (≈ 7.99 µM)
CC(=O)c1cccc(NC(=O)Nc2cccc(C(=O)Nc3ccc(Br)cc3C(=O)O)c2)c1 [PHA-708993] | 4 µg/mL (≈ 8.06 µM)
O=C(Nc1ccc(Br)cc1C(=O)O)c1ccc(NS(=O)(=O)c2ccccc2)cc1 [PHA-708994] | 8 µg/mL (≈ 16.8 µM)
O=C(Nc1ccc(Br)cc1C(=O)O)c1cccc(NS(=O)(=O)c2ccc(OC(F)(F)F)cc2)c1 [PHA-708995] | 0.125 µg/mL (≈ 0.223 µM)
O=C(Nc1ccc(Br)cc1C(=O)O)c1ccc(NS(=O)(=O)c2ccc(OC(F)(F)F)cc2)cc1 [PHA-708996] | 16 µg/mL (≈ 28.6 µM)
O=C(Nc1ccc(Br)cc1C(=O)O)c1ccc(NS(=O)(=O)c2ccc(Cl)c(Cl)c2)cc1 [PHA-708997] | 8 µg/mL (≈ 14.7 µM)
O=C(Cc1cccs1)Nc1ccc(C(=O)Nc2ccc(Br)cc2C(=O)O)cc1 [PHA-713386] | 128 µg/mL (≈ 279 µM)
O=C(Nc1ccc(Br)cc1C(=O)O)c1cccc(NC(=O)c2ccc([N+](=O)[O-])o2)c1 [PHA-713387] | 128 µg/mL (≈ 270 µM)
O=C(Nc1cccc(C(=O)Nc2ccc(Br)cc2C(=O)O)c1)c1ccc(Cl)nc1 [PHA-713389] | > 128 µg/mL
O=C(Nc1ccc(C(=O)Nc2ccc(Br)cc2C(=O)O)cc1)c1ccc(Cl)nc1 [PHA-713390] | > 128 µg/mL
O=C(Nc1ccc(Br)cc1C(=O)O)c1cccc(NC(=O)c2sc3ccccc3c2Cl)c1 [PHA-713391] | > 128 µg/mL
O=C(Nc1ccc(Br)cc1C(=O)O)c1ccc(NC(=O)c2sc3ccccc3c2Cl)cc1 [PHA-713392] | > 128 µg/mL
O=C(Nc1ccccc1)Nc1ccc(C(=O)Nc2ccc(Br)cc2C(=O)O)cc1 [PHA-713393] | > 128 µg/mL
O=C(Nc1ccc(C(=O)Nc2ccc(Br)cc2C(=O)O)cc1)Nc1ccc(F)cc1F [PHA-713394] | 128 µg/mL (≈ 261 µM)
N#Cc1cccc(NC(=O)Nc2ccc(C(=O)Nc3ccc(Br)cc3C(=O)O)cc2)c1 [PHA-713395] | > 128 µg/mL
O=C(Nc1ccc(Br)cc1C(=O)O)c1cccc(NC(=S)Nc2cc(Cl)cc(Cl)c2)c1 [PHA-713396] | 8 µg/mL (≈ 14.8 µM)
O=C(Nc1ccc(C(=O)Nc2ccc(Br)cc2C(=O)O)cc1)Nc1cc(Cl)cc(Cl)c1 [PHA-713397] | > 128 µg/mL
COc1ccc(Cl)cc1NC(=O)Nc1cccc(C(=O)Nc2ccc(Br)cc2C(=O)O)c1 [PHA-713398] | 4 µg/mL (≈ 7.71 µM)
O=C(Nc1ccc(Oc2ccccc2)cc1)Nc1cccc(C(=O)Nc2ccc(Br)cc2C(=O)O)c1 [PHA-713399] | 16 µg/mL (≈ 29.3 µM)
O=C(Nc1ccc(Oc2ccccc2)cc1)Nc1ccc(C(=O)Nc2ccc(Br)cc2C(=O)O)cc1 [PHA-713400] | 16 µg/mL (≈ 29.3 µM)
CC(=O)c1ccc(NC(=O)Nc2cccc(C(=O)Nc3ccc(Br)cc3C(=O)O)c2)cc1 [PHA-713401] | 32 µg/mL (≈ 64.5 µM)
O=C(Nc1ccc(Br)cc1C(=O)O)c1ccc(NC(=S)Nc2ccc([N+](=O)[O-])cc2)cc1 [PHA-713403] | 64 µg/mL (≈ 124 µM)
O=C(Nc1ccc(Br)cc1C(=O)O)c1cccc(NC(=S)Nc2ccccc2C(F)(F)F)c1 [PHA-713405] | 128 µg/mL (≈ 238 µM)
COc1cc(NC(=S)Nc2cccc(C(=O)Nc3ccc(Br)cc3C(=O)O)c2)cc(OC)c1OC [PHA-713406] | 64 µg/mL (≈ 114 µM)

Structure (SMILES) | MIC
CSc1cccc(NC(=S)Nc2cccc(C(=O)Nc3ccc(Br)cc3C(=O)O)c2)c1 [PHA-713407] | 32 µg/mL (≈ 62 µM)
CC(=O)c1cccc(NC(=S)Nc2cccc(C(=O)Nc3ccc(Br)cc3C(=O)O)c2)c1 [PHA-713408] | 64 µg/mL (≈ 125 µM)
O=C(Nc1ccc(Br)cc1C(=O)O)c1cccc(NS(=O)(=O)c2ccccc2)c1 [PHA-713409] | 1 µg/mL (≈ 2.1 µM)
O=C(Nc1ccc(Br)cc1C(=O)O)c1cccc(NS(=O)(=O)c2ccc(Cl)c(Cl)c2)c1 [PHA-713410] | 1 µg/mL (≈ 1.84 µM)
Cc1ccc(S(=O)(=O)Cc2ccc(C(=O)Nc3ccc(Br)cc3C(=O)O)cc2)cc1 [PHA-713411] | 32 µg/mL (≈ 65.5 µM)
Cc1c(C(=O)Nc2ccc(Br)cc2C(=O)O)cccc1S(=O)(=O)N(C)c1ccc(Cl)cc1 [PHA-717196] | 4 µg/mL (≈ 7.44 µM)
CC(=O)c1ccc(NC(=O)c2cccc(S(=O)(=O)N3CCc4cc(Cl)ccc43)c2)c(C(=O)O)c1 [PHA-719201] | 2 µg/mL (≈ 4.01 µM)
Cc1c(C(=O)Nc2ccc(C#N)cc2C(=O)O)cccc1S(=O)(=O)N1CCc2cc(Cl)ccc21 [PHA-728844] | 0.25 µg/mL (≈ 0.504 µM)
COc1c(C(=O)Nc2ccc(Br)cc2C(=O)O)cccc1S(=O)(=O)N(C)c1ccc(Cl)cc1 [PHA-735753] | 16 µg/mL (≈ 28.9 µM)
CCCCCC(=O)NCc1ccc(C(=O)Nc2ccc(C#N)cc2C(=O)O)cc1S(=O)(=O)N1CCc2ccccc21 [PHA-738531] | 64 µg/mL (≈ 111 µM)
CCCCCCCCCCC(=O)NCc1ccc(C(=O)Nc2ccc(C#N)cc2C(=O)O)cc1S(=O)(=O)N1CCc2ccccc21 [PHA-738532] | 32 µg/mL (≈ 49.6 µM)
CC(=O)NCc1ccc(C(=O)Nc2ccc(C#N)cc2C(=O)O)cc1S(=O)(=O)N1CCc2ccccc21 [PHA-740499] | 128 µg/mL (≈ 247 µM)
N#Cc1ccc(NC(=O)c2ccc(N=[N+]=[N-])c(I)c2)c(C(=O)O)c1 [PHA-748361] | 8 µg/mL (≈ 18.5 µM)
O=C(O)c1ccc(NS(=O)(=O)c2ccc(C(=O)Nc3ccc(Br)cc3C(=O)O)cc2)cc1 [PNU-276817] | 4 µg/mL (≈ 7.7 µM)
CN(c1ccc(Cl)cc1)S(=O)(=O)c1ccc(C(=O)Nc2ccc(Br)cc2C(=O)O)cc1 [PNU-276988] | 16 µg/mL (≈ 30.5 µM)
CCCN(CCC)Sc1ccc(C(=O)Nc2ccc(Cl)cc2C(=O)O)cc1[N+](=O)[O-] [PNU-277231] | 1 µg/mL (≈ 2.21 µM)
O=C(Nc1ccc(I)cc1C(=O)O)c1ccc(F)cc1 [PNU-281164] | > 128 µg/mL
O=C(Nc1ccc(Br)cc1C(=O)O)c1ccc(S(=O)(=O)Nc2nc[nH]n2)cc1 [PNU-282859] | 32 µg/mL (≈ 68.6 µM)
CN(c1ccc(Cl)cc1)S(=O)(=O)c1cccc(C(=O)Nc2ccc(Br)cc2C(=O)O)c1 [PNU-283076] | 1 µg/mL (≈ 1.91 µM)
O=C(Nc1ccc(Br)cc1C(=O)O)c1ccc(S(=O)(=O)n2ccc3ccccc32)cc1 [PNU-283318] | 0.125 µg/mL (≈ 0.25 µM)
O=C(Nc1ccc(Br)cc1C(=O)O)c1ccc(S(=O)(=O)n2cnc3ccccc32)cc1 [PNU-283371] | 4 µg/mL (≈ 7.99 µM)
O=C(Nc1ccc(Cl)cc1C(=O)O)c1ccc(S(=O)(=O)N2CCc3ccccc32)c([N+](=O)[O-])c1 [PNU-283599] | 1 µg/mL (≈ 1.99 µM)
CCCC(CCC)S(=O)(=O)c1ccc(C(=O)Nc2ccc(Cl)cc2C(=O)O)cc1NO.Cl [PNU-283601A] | 32 µg/mL
